We go through 16 molecules from patent US12410194B2, “Potent and selective azaindole inhibitors of CDK8 and CDK19” (priority 2019, dated 2025).

One may read the IC50 as the concentration that inhibits the measured activity by half.

This assay deals with CDK8/cyclin C (Homo sapiens (Human), UniProt P49336). Put plainly: LanthaScreen Eu Kinase Binding Assay for CDK8/cyclin C. Particulars: 10-point curve, 4-fold dilution series, 60 min at room temperature. A general note: In TR-FRET formats the signal depends on donor and acceptor labels being close together.
Chain of CDK8/cyclin C (P49336 whole entry, looked up): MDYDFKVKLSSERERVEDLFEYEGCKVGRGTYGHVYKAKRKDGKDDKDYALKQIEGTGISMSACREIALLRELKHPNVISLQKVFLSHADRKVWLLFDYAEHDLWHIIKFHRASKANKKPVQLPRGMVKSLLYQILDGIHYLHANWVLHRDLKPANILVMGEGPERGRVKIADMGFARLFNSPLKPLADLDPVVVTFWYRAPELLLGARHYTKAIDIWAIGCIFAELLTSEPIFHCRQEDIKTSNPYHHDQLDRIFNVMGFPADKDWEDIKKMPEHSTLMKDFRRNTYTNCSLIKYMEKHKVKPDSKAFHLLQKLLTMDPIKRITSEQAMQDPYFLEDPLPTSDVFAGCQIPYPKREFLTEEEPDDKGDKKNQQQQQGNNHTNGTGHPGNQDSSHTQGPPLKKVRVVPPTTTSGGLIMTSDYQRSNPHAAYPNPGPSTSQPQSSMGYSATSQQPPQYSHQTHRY
Chain of CDK8/cyclin C (P24863 whole entry partner, looked up): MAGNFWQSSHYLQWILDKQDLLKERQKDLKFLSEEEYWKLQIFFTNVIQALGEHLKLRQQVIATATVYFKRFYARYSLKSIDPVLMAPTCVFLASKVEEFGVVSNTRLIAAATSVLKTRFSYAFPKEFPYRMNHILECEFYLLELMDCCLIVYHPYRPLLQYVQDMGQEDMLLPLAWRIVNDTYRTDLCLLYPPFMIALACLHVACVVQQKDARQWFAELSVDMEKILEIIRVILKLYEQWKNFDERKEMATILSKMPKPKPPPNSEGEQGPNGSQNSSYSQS
Consider `O=C1NCCC12CCN(c1c(-c3ccc4scnc4c3)cnc3[nH]ccc13)CC2` [Compound 002, 8-(5-(benzo[d]thiazol-5-yl)-1H-pyrrolo[2,3-b]pyridin-4-yl)-2,8-diazaspiro[4.5]decan-1-one], for which the half-maximal inhibitory concentration (IC50) worked out at 6.46 nM.

In the case of `O=C1NCCC12CCN(c1c(-c3ccc4ncsc4c3)cnc3[nH]ccc13)CC2` [Compound 004, 8-(5-(benzo[d]thiazol-6-yl)-1H-pyrrolo[2,3-b]pyridin-4-yl)-2,8-diazaspiro[4.5]decan-1-one], the concentration for half-maximal inhibition (IC50) came to 24.5 nM.

`Cn1cnc2cc(-c3cnc4[nH]ccc4c3N3CCC4(CCNC4=O)CC3)ccc21` [Compound 005, 8-(5-(1-methyl-1H-benzo[d]imidazol-5-yl)-1H-pyrrolo[2,3-b]pyridin-4-yl)-2,8-diazaspiro[4.5]decan-1-one] displayed an IC50 of 32.2 nM.

Molecule `Cn1ncc2cc(-c3cnc4[nH]ccc4c3N3CCC4(CCCNC4=O)CC3)ccc21` [Compound 006, 9-(5-(1-methyl-1H-indazol-5-yl)-1H-pyrrolo[2,3-b]pyridin-4-yl)-2,9-diazaspiro[5.5]undecan-1-one] displayed an IC50 of 3 nM.

As to `O=C1NCCC12CCN(c1c(-c3ccc4ncnn4c3)cnc3[nH]ccc13)CC2` [Compound 007, 8-(5-([1,2,4]triazolo[1,5-a]pyridin-6-yl)-1H-pyrrolo[2,3-b]pyridin-4-yl)-2,8-diazaspiro[4.5]decan-1-one], the half-maximal inhibitory concentration (IC50) is 274 nM.

The molecule `O=C1NCCC12CCN(c1c(-c3ccc4[nH]cnc4c3)cnc3[nH]ccc13)CC2` [Compound 008, 8-(5-(1H-benzo[d]imidazol-5-yl)-1H-pyrrolo[2,3-b]pyridin-4-yl)-2,8-diazaspiro[4.5]decan-1-one] showed a half-inhibitory concentration (IC50) of 4.97 nM.

Take `O=C1NCCC12CCN(c1c(-c3ccn4ccnc4c3)cnc3[nH]ccc13)CC2` [Compound 009, 8-(5-(imidazo[1,2-a]pyridin-7-yl)-1H-pyrrolo[2,3-b]pyridin-4-yl)-2,8-diazaspiro[4.5]decan-1-one]: the IC50 was 76.4 nM.

For `Cn1ncc2cc(-c3cnc4[nH]ccc4c3N3CCC4(CC3)CNC4=O)ccc21` [Compound 010, 7-(5-(1-methyl-1H-indazol-5-yl)-1H-pyrrolo[2,3-b]pyridin-4-yl)-2,7-diazaspiro[3.5]nonan-1-one], the IC50 amounted to 6.3 nM.

As to `Cn1ncc2cc(-c3cnc4[nH]ccc4c3N3CCC4(CC3)CNC(=O)O4)ccc21` [Compound 011, 8-(5-(1-methyl-1H-indazol-5-yl)-1H-pyrrolo[2,3-b]pyridin-4-yl)-1-oxa-3,8-diazaspiro[4.5]decan-2-one], the IC50 came out at 7 nM.

As to `Cn1ncc2cc(-c3cnc4[nH]ccc4c3N3CCC4(CC3)NC(=O)NC4=O)ccc21` [Compound 014, 8-(5-(1-methyl-1H-indazol-5-yl)-1H-pyrrolo[2,3-b]pyridin-4-yl)-1,3,8-triazaspiro[4.5]decane-2,4-dione], the IC50 turned out to be 3 nM.

`Cn1ncc2cc(-c3cnc4[nH]cnc4c3N3CCC4(CCNC4=O)CC3)ccc21` [Compound 016, 8-(6-(1-methyl-1H-indazol-5-yl)-3H-imidazo[4,5-b]pyridin-7-yl)-2,8-diazaspiro[4.5]decan-1-one] gave an IC50 of 10 nM.

Molecule `Cn1ncc2cc(-c3cnc4[nH]ccc4c3N3CCC4(CCNC4=O)C3)ccc21` (stereo not shown) [Compound 017, 7-(5-(1-methyl-1H-indazol-5-yl)-1H-pyrrolo[2,3-b]pyridin-4-yl)-2,7-diazaspiro[4.4]nonan-1-one] yielded a 50% inhibitory concentration (IC50) of 55 nM.

Molecule `Cn1ncc2cc(-c3cnc4[nH]cc(Cl)c4c3N3CCC4(CCNC4=O)CC3)ccc21` [Compound 018, 8-(3-chloro-5-(1-methyl-1H-indazol-5-yl)-1H-pyrrolo[2,3-b]pyridin-4-yl)-2,8-diazaspiro[4.5]decan-1-one] displayed an IC50 of 1.73 nM.

`Cn1ncc2cc(-c3cnc4sccc4c3N3CCC4(CCNC4=O)CC3)ccc21` [Compound 019, 8-(5-(1-methyl-1H-indazol-5-yl)thieno[2,3-b]pyridin-4-yl)-2,8-diazaspiro[4.5]decan-1-one]: the half-maximal inhibitory concentration (IC50) is 206 nM.

In turn, `Cn1ncc2cc(-c3cnc4[nH]nc(Cl)c4c3N3CCC4(CCNC4=O)CC3)ccc21` [Compound 020] had an IC50 of 1.37 nM.

`Cc1n[nH]c2ncc(-c3ccc4c(cnn4C)c3)c(N3CCC4(CCNC4=O)CC3)c12` [Compound 021] gave an IC50 of 36 nM.
